Results from PubChem BioAssay (NCI).
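GI50 = concentration required for 50% inhibition of growth. TGI: concentration producing complete growth inhibition.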

Assays:
Test in all cases: inhibition of tumour cell growth, NCI panel, 384-well format
[1] = system: COLO 205 colon
[2] = system: HOP-62 NSCLC
[3] = system: HT29 colon
[4] = system: MCF7 breast
[5] = system: MDA-MB-435 melanoma
[6] = system: MOLT-4 leukemia
[7] = system: NCI-H226 lung
[8] = system: NCI-H522 lung
[9] = system: OVCAR-5 ovarian
[10] = system: PC-3 prostate
[11] = system: SF-539 CNS
[12] = system: SK-MEL-28 melanoma
[13] = system: SNB-19 CNS

O=c1[nH]nc2c3c(cccc13)NC(CN1Cc3ccccc3C1)=N2
GI50 [1]: 5.51 µM | TGI [1]: > 56.2 µM | GI50 [2]: 4.06 µM | TGI [2]: > 100 µM | GI50 [3]: 4.31 µM | TGI [3]: 26.3 µM | GI50 [4]: 7.24 µM | TGI [4]: > 100 µM | GI50 [5]: 3.74 µM | TGI [5]: 15.6 µM | GI50 [6]: 2.5 µM | TGI [6]: 7.73 µM | GI50 [7]: 3.21 µM | TGI [7]: 52 µM | GI50 [8]: 2.49 µM | TGI [8]: 7.83 µM | GI50 [9]: 3.89 µM | TGI [9]: 22.6 µM | GI50 [10]: 4.32 µM | TGI [10]: 57.5 µM | GI50 [11]: 20.9 µM | TGI [11]: > 100 µM | GI50 [12]: 5.99 µM | TGI [12]: 27.6 µM | GI50 [13]: 48 µM | TGI [13]: > 100 µM
